Legend:
[1] = Protein binding by BioSPME (C18 96-pin tool, extraction from spiked plasma and buffer); conditions: human
Protocol: (§1) Protein Binding by BioSPME was studied. A 96-pin device was prepared with an […] pre-coating and PAN/C18 BioSPME coating. Human plasma and buffer were spiked at a therapeutically relevant concentration and incubated for one hour at 37° C. while shaking at 300 rpm. After the incubation, 200 μL plasma and buffer were loaded into separate columns on to the extraction well plate (n=8). The determination of the protein binding was determined by automated robotic method using the BioSPME C18 96-pin tool. Briefly, the pin tool is conditioned for twenty minutes static in isopropanol, then it is transferred into a new well plate for 10 seconds in water (wash step). This is followed by the extraction step. The pin tool is transferred into the preloaded extraction plate described earlier. Here, the pin tool extracts the analytes while shaking at 1200-1250 rpm at 37° C. for 15 minutes. The pin tools return to the water solution for a 60 seconds wash and finally transferred into a desorption plate. The desorption solution is a 80:20 methanol:water and desorbs for 20 minutes under static conditions. Samples were analyzed using methods described in Tables 5 and 6.
(§2) The extraction plates used in this study included both plastic and glass-coated plates. The choice of the plate depended on the compound properties and how well the compound behaved in buffer solution.
(§3) Determination of % Free Fraction (Fu) by BioSPME
(§4) BioSPME method determines the free concentration of analyte in plasma by comparing it with the extraction of the analyte from buffer samples where 100% of the analyte is considered to be free of protein biding.
(§5) The percent free or percent unbound is determined in Eq. 1:
(§6) where concentration free represents the unbound concentration of the analyte in the matrix in this case plasma, and concentration total represents the total concentration of analyte. The amount extracted is independent of units and can be applied using preferred quantities (e.g. nanograms or moles) Mfree, and extraction volume of plasma, Vplasma. The concentration of analyte in the desorption solution is quantified by an external calibration curve, and if the desorption volume is equal to the plasma and buffer extraction volumes, the concentration from desorption will be equal to the extracted concentration as shown in Eq 2.
(§7) The bound fraction, FB, can be determined from the extracted concentrations as shown in Eq 6.
(§8) In cases where depletion of compounds from plasma was pronounced upon BioSPME extraction (extraction exceeded 5% of total spiked analyte), a correction to the calculated Bound Fraction was required as described below:
(§9) where B and P, represent the respective amounts extracted from buffer, B, and plasma, P. B^0 represents the concentration the samples were spiked originally.

Human plasma = assay: in vitro
Protocol: as §1, §2, §3, §4, §5, §6, §7, §8, §9

[2] = Non-specific binding to plastic extraction plates; assay type: in vitro ADME; conditions: plastic versus glass-coated 96-well extraction plates, buffer solution
Source text: as §2

[3] = cited from earlier work; for Physiological Charge: physiological pH
[4] = human plasma, spiked 100 ng/mL, 200 μL sample, 37° C., n = 8

Structure (SMILES) | Physiological Charge [3] | fraction unbound at 1 h, 100 ng/mL ([1]; plasma) | Ave. Buffer Extracted (Human plasma; 15 min, 100 ng/mL) [ng/mL] | Ave. Plasma Extracted (Human plasma; human, 15 min, 100 ng/mL) [ng/mL] | Ave. FB(%) (bound fraction) (Human plasma; human, 1 h, 100 ng/mL) | also measured
CC(=O)N1CCN(c2ccc(OCC3COC(Cn4ccnc4)(c4ccc(Cl)cc4Cl)O3)cc2)CC1 (centres unmarked) [Ketoconazole] | 0 | – | – | – | – | fraction unbound at 1 h, 500 ng/mL ([1]; human plasma): 0.032; Ave. Buffer Extracted (Human plasma; 15 min, 500 ng/mL): 282.4 ng/mL; Ave. FB(%) (bound fraction) (Human plasma; human plasma, spiked 500 ng/mL, 200 μL sample, 37° C., n = 8): 96.8%; Ave. Plasma Extracted (Human plasma; human, 15 min, 500 ng/mL): 20.0 ng/mL; non-specific binding to plastic [2]: exhibit non-specific biding to plastic; pKa [3]: 6.75
Cc1ccc(-c2nc3ccc(C)cn3c2CC(=O)N(C)C)cc1 [Zolpidem] | 0 | 0.031 | – | – | – | Ave. Buffer Extracted (Human plasma; buffer, spiked 100 ng/mL, 200 μL sample, n = 8): 68.4 ng/mL; Ave. FB(%) (bound fraction) (Human plasma; [4]): 96.9%; Ave. Plasma Extracted (Human plasma; human plasma, spiked 100 ng/mL, 200 μL sample, n = 8): 2.1 ng/mL
CN(C)CCCN1c2ccccc2CCc2ccccc21 [Imipramine] | 1 | – | 65.4 | 12.2 | – | fraction unbound at 1 h, 100 ng/mL ([1]; human plasma): 0.074; Ave. FB(%) (bound fraction) (Human plasma; [4]): 92.6%; non-specific binding to plastic [2]: exhibit non-specific biding to plastic
CC[C@H]1OC(=O)[C@H](C)[C@@H](O[C@H]2C[C@@](C)(OC)[C@@H](O)[C@H](C)O2)[C@H](C)[C@@H](O[C@@H]2O[C@H](C)C[C@H](N(C)C)[C@H]2O)[C@](C)(O)C[C@@H](C)C(=O)[C@H](C)[C@@H](O)[C@]1(C)O [Erythromycin] | – | 0.182 | 35.0 | 6.5 | 81.8 | –
O=C1CC2(CCCC2)CC(=O)N1CCCCN1CCN(c2ncccn2)CC1 [Buspirone] | – | – | – | – | – | pKa [3]: 4.12
CC(C)NCC(O)COc1cccc2ccccc12 (centres unmarked) [Propranolol] | 1 | 0.095 | 18.3 | 1.7 | 90.5 | –
CC(=O)CC(c1ccccc1)c1c(O)c2ccccc2oc1=O (centres unmarked) [Warfarin] | – | – | – | – | – | fraction unbound at 1 h, 2500 ng/mL ([1]; plasma): 0.002; Ave. Buffer Extracted (Human plasma; 15 min, 2500 ng/mL): 10.0 ng/mL; Ave. Plasma Extracted (Human plasma; human, 15 min, 2500 ng/mL): <0.1 ng/mL; Ave. FB(%) (bound fraction) (Human plasma; human, 1 h, 2500 ng/mL): 99.8%
NC(=O)N1c2ccccc2C=Cc2ccccc21 [Carbamazepine] | 0 | 0.236 | 34.7 | 8.2 | 76.4 | –
CCn1cc(C(=O)O)c(=O)c2ccc(C)nc21 [Nalidixic Acid] | – | – | – | – | – | fraction unbound at 1 h, 2000 ng/mL ([1]; plasma): 0.03; Ave. Buffer Extracted (Human plasma; 15 min, 2000 ng/mL): 16.35 ng/mL; Ave. Plasma Extracted (Human plasma; human, 15 min, 2000 ng/mL): 0.5 ng/mL; Ave. FB(%) (bound fraction) (Human plasma; human, 1 h, 2000 ng/mL): 97.0%; Log P [3]: 1.59
C[C@]12C=CC(=O)C=C1CC[C@@H]1[C@@H]2[C@@H](O)C[C@@]2(C)[C@H]1CC[C@]2(O)C(=O)CO [prednisolone] | 0 | 0.218 | 62.1 | 13.5 | 78.2 | –

Reference: patent US20240009651A1, “PRE-COATINGS FOR BIOCOMPATIBLE SOLID PHASE MICROEXTRACTION DEVICES” (SIGMA-ALDRICH CO. LLC, priority 2020, published 2024)
